Experimental data published in US10828326B2, “Compositions and methods for treating and preventing venom related poisoning” (priority 2015, dated 2020).

What was measured:
C. atrox venom = assay: Isolated venom exposure to FeCl3, CORM-2 or iCORM-2, then thrombelastography in human plasma (Example VI); type: biochemical, Crotalus atrox; settings: in words
Procedure: C. atrox venom was obtained from the National Natural Toxins Research Center at Texas A&M University-Kingsville, Tex., USA. Venom was reconstituted in calcium-free phosphate buffered saline (PBS, Sigma-Aldrich, Saint Louis, Mo., USA), and stored at −80° C. Pooled human normal plasma anticoagulated with sodium citrate was obtained from George King Bio-Medical, Overland Park, Kans., USA. Ferric chloride (FeCl3, 99.9% pure), tricarbonyldichlororuthenium (II) dimer (CORM-2), and dimethyl sulfoxide (DMSO) were obtained from Sigma-Aldrich. The final concentrations of FeCl3 (dissolved in PBS) and CORM-2 (dissolved in DMSO) were 0-10 μM and 0-100 μM, respectively; these were the concentrations used in previous works involving the effects of modifying fibrinogen prior to venom exposure in plasma.
To increase the detection of effects of iron/CO on venom activity, the concentration of venom chosen for isolated exposure and for addition to plasma was twice the amount expected to eliminate coagulation based on previous work (see, Nielsen V G, Boyer L V. Iron and carbon monoxide attenuate degradation of plasmatic coagulation by Crotalus atrox venom. Blood Coagul Fibrinolysis. In press). A 1 ml quantity of a 200 μg/ml solution of venom in PBS was prepared for each condition subsequently presented. The conditions were: 1) 1% addition (v/v) of PBS and DMSO to PBS without venom; 2) 1% addition (v/v) of PBS and DMSO to PBS with venom; 3) 1% addition of FeCl3 and CORM-2 to PBS without venom; 4) 1% addition of FeCl3 and CORM-2 to PBS […]) 1% addition of FeCl3 and DMSO to PBS with venom; 6) 1% addition of CORM-2 to PBS with venom; and lastly, 7) 1% addition of PBS and iCORM-2 to PBS with venom. After 3 min of incubation at room temperature, 3.6 μl of solution from one of these conditions was placed into 326 μl of plasma and 10 μl of tissue factor reagent (0.1% final concentration in distilled water; Diagnostica Stago S.A.S., Asnieres sur Seine, France) in a disposable cup in a computer-controlled Thrombelastograph® hemostasis system (Model 5000, Haemonetics Inc., Braintree, Mass., USA). After test solution addition, 20 μl of 200 mM CaCl2 was immediately added to initiate clotting. Data were collected at 37° C. for 15 min. […] 2014; 25(8):801-805) were determined: time to maximum rate of thrombus generation (TMRTG): this is the time interval (min) observed prior to maximum speed of clot growth; maximum rate of thrombus generation (MRTG): this is the maximum velocity of clot growth observed (dynes/cm^2/sec); and total thrombus generation (TTG, dynes/cm^2), the final viscoelastic resistance observed after clot formation. […]

[1] = rabbit ear-bleed model; CORM-2 injected at 10 mg/kg (equivalent to 279 μM final concentration); cited from earlier work
[2] = system: Crotalus atrox venom-enhanced tissue-type plasminogen activator initiated fibrinolysis; assay: Thrombelastography of human plasma pretreated with iron and/or CO before venom exposure in the presence of tPA (Example II); type: biochemical; settings: 100 IU/ml tPA; for time to maximum rate of thrombus generation (TMRTG): 100 μM CORM-2
Procedure: Two hundred mg of lyophilized, pooled venom was obtained from four western diamondback rattlesnakes (Crotalus atrox) for experimentation. Venom was reconstituted in calcium-free phosphate buffered saline (PBS, Sigma-Aldrich, Saint Louis, Mo., USA) at a concentration of 20 mg/ml, aliquoted, and then stored at −80° C. until experimentation at the University of Arizona.
Pooled normal plasma (George King Bio-Medical, Overland Park, Kans., USA) anticoagulated with sodium citrate was rapidly thawed at 37° C. and used for experimentation. To assess the effects of pretreatment of antifibrinolytic plasma proteins with iron, CO, or both, 1% additions of PBS, ferric chloride (FeCl3, 99.9% pure, Sigma-Aldrich, Saint Louis, Mo., USA) in PBS, or CORM-2 (tricarbonyldichlororuthenium (II) dimer, a CO releasing molecule, Sigma-Aldrich, Saint Louis, Mo., USA) dissolved in dimethyl sulfoxide (DMSO, Sigma-Aldrich, Saint Louis, Mo., USA) were used. […] Plasma was exposed to these various agents for at least 5 min prior to incubations with venom.
The final volume for all subsequently described plasma sample mixtures was 359.4 μl. Sample composition consisted of […] of plasma; 10 μl of tissue factor reagent (0.1% final concentration in distilled water; Diagnostica Stago S.A.S., Asnieres sur Seine, France), 10 μl of tissue type plasminogen activator (tPA, 580 IU/μg, Genentech, Inc., San Francisco, Calif., USA; 100 IU/ml final concentration) and 3.4 μl of PBS or venom (final concentration 0.5-2.0 μg/ml). […] The aforementioned plasma and venom mixtures were placed in a disposable cup in a computer-controlled Thrombelastograph® hemostasis system (Model 5000, Haemoscope Corp., Niles, Ill., USA) and incubated for 5 min at 37° C., with addition of 20 μl of 200 mM CaCl2) as the last step to initiate clotting. Data were collected at 37° C. until clot lysis time (CLT) was observed. The following elastic modulus-based parameters previously described (see, Nielsen V G, Pretorius E. Blood Coagul Fibrinolysis 2014; 25:695-702) were determined: time to maximum rate of thrombus generation (TMRTG): this is the time interval (min) observed prior to maximum speed of clot growth; maximum rate of thrombus generation (MRTG): this is the maximum velocity of clot growth observed (dynes/cm^2/sec); total thrombus generation (TTG, dynes/cm^2), the final viscoelastic resistance observed after clot formation; time to maximum rate of lysis (TMRL, min), maximum rate of lysis (MRL, dynes/cm^2/sec) and CLT (min). Lastly, to assess if venom had thrombolytic properties that were tPA independent, n=4 replicates were performed wherein no tPA was added and data were collected for 3 h.
Data are presented as mean±SD. All conditions unless otherwise indicated were represented by n=8 replicates. This number of replicates reliably provides a statistical power>0.8 for P<0.05 (see, Nielsen V G, Pretorius E. Blood Coagul Fibrinolysis 2014; 25:695-702). A commercially available statistical program was used for two-way analysis of variance (ANOVA) to assess interactions of venom and tPA on coagulation kinetics and interactions of iron and CO on venom-enhanced fibrinolysis (SigmaStat 3.1, Systat Software, Inc., San Jose, Calif., USA). Additional one-way ANOVA followed by Holm-Sidak post hoc analyses were performed to assess differences between the conditions. Graphics depicting viscoelastic data were generated with a commercially available program (OrigenPro 7.5, OrigenLab Corporation, Northampton, Mass., USA).

Crotalus atrox venom = assay: Thrombelastography of human plasma pretreated with iron and/or CO, then incubated with Crotalus atrox venom (Example I); type: biochemical; settings: 0.5 μg/ml venom, 5 min incubation
Procedure: (§1) Two-hundred mg of lyophilized, pooled venom was obtained from four western diamondback rattlesnakes (Crotalus atrox) for experimentation. Venom was reconstituted in calcium-free phosphate buffered saline (PBS, Sigma-Aldrich, Saint Louis, Mo., USA) at a concentration of 20 mg/ml, aliquoted, and then stored at −80° C. until experimentation at the University of Arizona. Pooled human normal plasma (George King Bio-Medical, Overland Park, Kans., USA) anticoagulated with sodium citrate was rapidly thawed at 37° C. and used for experimentation. To assess the effects of pretreatment of fibrinogen with iron, CO, or both, 1% additions of PBS, ferric chloride (FeCl3, 99.9% pure, Sigma-Aldrich, Saint Louis, Mo., USA) in PBS, or CORM-2 (tricarbonyldichlororuthenium (II) dimer, a CO releasing molecule, Sigma-Aldrich, Saint Louis, Mo., USA) dissolved in dimethyl sulfoxide (DMSO, Sigma-Aldrich, Saint Louis, Mo., USA). The final concentrations of FeCl3 and CORM-2 were 10 μM and 100 μM, respectively; these concentrations are associated with nearly maximal augmenting effects on coagulation kinetics (see, Nielsen V G, et al., Blood Coagul Fibrinolysis 2014; 25:695-702). Plasma was exposed to these various agents for at least 5 min prior to incubations with venom.
(§2) The final volume for all subsequently described plasma sample mixtures was 359.4 μl. Sample composition consisted of 326 μl of plasma; 10 μl of tissue factor reagent (0.1% final concentration in distilled water; Diagnostica Stago S.A.S., Asnieres sur Seine, France) and 3.4 μl of PBS or venom (final concentration 0.5 μg/ml). […] The aforementioned plasma and venom mixtures were placed in a disposable cup in a computer-controlled Thrombelastograph® hemostasis system (Model 5000, Haemoscope Corp., Niles, Ill., USA) and incubated for 5 or 20 min at 37° C., with addition of 20 μl of 200 mM CaCl2) as the last step to initiate clotting. Data were collected at 37° C. for 15 min after 5 min of incubation, whereas samples incubated with venom for 20 min had data collected for 30 min, given the prolonged onset of coagulation and diminished rate of thrombus formation. The following elastic modulus-based parameters previously described (see, Nielsen, et al., 2014, Blood Coagul. Fibrinolysis 25:695-702; Nielsen, et al., 2011, Blood Coagul. Fibrinolysis 22: 443-447); Nielsen V G, et al., Blood Coagul Fibrinolysis 2014; 25:845-850) were determined: time to maximum rate of thrombus generation (TMRTG): this is the time interval (min) observed prior to maximum speed of clot growth; maximum rate of thrombus generation (MRTG): this is the maximum velocity of clot growth observed (dynes/cm^2/sec); and total thrombus generation (TTG, dynes/cm^2), the final viscoelastic resistance observed after clot formation.
(§3) Data are presented as mean+SD. A commercially available statistical program was used for one-way analysis of variance followed by Holm-Sidak post hoc analyses (SigmaStat 3.1, Systat Software, Inc., San Jose, Calif., USA). Graphics depicting viscoelastic data were generated with a commercially available program (OrigenPro 7.5, OrigenLab Corporation, Northampton, Mass., USA; CorelDRAW12, Corel Corporation, Mountain View, Calif., USA).

human plasma = assay: Thrombelastography of venom naïve human plasma with iron and/or CO addition (Example I); type: biochemical; settings: baseline (venom naïve); 10 μM FeCl3 and/or 100 μM CORM-2; compared to plasma without any additions
Procedure: as §1, §2, §3

[3] = 10 μM ferric chloride or 100 μM CORM-2, vs matched samples without or with venom exposure (0.5 μg/ml)

Compound | effects on C. atrox venom activity on plasmatic coagulation (C. atrox venom; isolated venom exposure) | coagulation kinetic parameters of plasma after addition of PBS with venom exposed to the agent (C. atrox venom; venom 2 μg/ml final, 10 μM FeCl3, 100 μM CORM-2 or iCORM-2) | adverse effects [1] | maximum rate of lysis (MRL) ([2]; 100 μM CORM-2 addition followed by venom exposure (0.5 μg/ml)) | maximum rate of lysis (MRL) ([2]; 100 μM CORM-2 addition, without venom) | maximum rate of thrombus generation (MRTG), change on venom exposure (Crotalus atrox venom; vs matched venom naïve samples) | maximum rate of thrombus generation (MRTG) (Crotalus atrox venom; vs plasma without additions exposed to venom) | clot strength (TTG) (Crotalus atrox venom; vs samples without CO added) | maximum rate of thrombus generation (MRTG) (human plasma) | time to maximum rate of thrombus generation (TMRTG) (human plasma) | total thrombus generation (TTG) (human plasma) | clot lysis time (CLT) [2, 3] | maximum rate of thrombus generation (MRTG) [2, 3] | time to maximum rate of lysis (TMRL) [2, 3] | total thrombus generation (TTG) [2, 3] | time to maximum rate of thrombus generation (TMRTG) ([2]; venom exposed plasma (0.5 μg/ml)) | time to maximum rate of thrombus generation (TMRTG) ([2]; venom naïve samples)
[C-]#[O+].[C-]#[O+].[C-]#[O+].[C-]#[O+].[C-]#[O+].[C-]#[O+].[Cl][Ru][Cl].[Cl][Ru][Cl] [CORM-2, tricarbonyldichlororuthenium (II) dimer] | completely inhibited | not different from PBS/DMSO exposed plasma | without adverse effects noted | reduced MRL to control values | significantly increased |  |  |  |  |  |  |  |  |  |  |  | 
tricarbonyldichlororuthenium (II) dimer [CORM-2] |  |  |  |  |  | significantly decreased | significantly greater | significantly greater | significant increase | no change | significant increase | significantly greater | significantly greater | significantly greater | greater | significantly less | did not significantly affect
